Data from patent US6326372A, “Lactam and cyclic urea derivatives useful as alpha 1a adrenoceptor antagonists” (Merck & Co., Inc., priority 2000, dated 2001).
Structures can show the parent of a compound that is named as a salt.

System: alpha 1a receptors versus alpha 1b and alpha 1d receptors
Assay: Selective Binding Assays: binding to alpha 1a versus alpha 1b and alpha 1d receptors ([125I]-HEAT competition binding)
Parameters: species or system human
Details: alpha 1a versus both alpha 1b and alpha 1d; at least about
Description: Membranes prepared from the stably transfected human alpha 1a cell line (ATCC CRL 11140) were used to identify compounds that bind to the human alpha 1a adrenergic receptor. These competition binding reactions (total volume=200 μl) contained 50 mM Tris-HCl pH. 7.4, 5 mM EDTA, 150 mM NaCl, 100 pM [^125 I]-HEAT, membranes prepared from the alpha 1a cell line and increasing amounts of unlabeled ligand. Reactions were incubated at room temperature for one hour with shaking. Reactions were filtered onto Whatman GF/C glass fiber filters with a Inotec 96 well cell harvester. Filters were washed three times with ice cold buffer and bound radioactivity was determined (Ki).
Membranes prepared from stably transfected human alpha 1d and alpha 1b cell lines (ATCC CRL 11138 and CRL 11139, respectively) were used to identify compounds that selectively bind to the human alpha 1a adrenergic receptor. These competition binding reactions (total volume=200 μl) contained 50 mM Tris-HCl pH. 7.4, 5 mM EDTA, 150 mM NaCl, 100 pM [^125 I]-HEAT, membranes prepared from cell lines transfected with the respective alpha 1 subtype expression plasmid and increasing amounts of unlabeled ligand. Reactions were incubated at room temperature for one hour with shaking. Reactions were filtered onto Whatman GF/C glass fiber filters with a Inotec 96 well cell harvester. Filters were washed three times with ice cold buffer and bound radioactivity was determined (Ki).

| SMILES | fold more selective in binding to alpha 1a receptors versus binding to the alpha 1b and alpha 1d receptors |
| --- | --- |
| O=C1CCCC(c2ccc(F)c(F)c2)N1C(=O)NCCCN1CCC(c2ccc(F)cc2)CC1 (racemic) [Example 4, (6RS)-, 6(R)-, and 6(S)-1-[3-[4-(4-Fluorophenyl)piperidin-1-yl]-propylaminocarbonyl]-6-(3,4-difluorophenyl)piperidin-2-one Hydrochloride] | at least 10 fold |
| N#Cc1ccccc1C1(C#N)CCN(CCCNC(=O)N2C(=O)CCCC2c2ccc(F)c(F)c2)CC1 (racemic) [Example 5, (6RS)-, 6(R)- and 6(S)-1-[3-[4-(2-Cyanophenyl)-4-cyanopiperidin-1-yl]-propylaminocarbonyl]-6-(3,4-difluorophenyl)piperidin-2-one Hydrochloride] | at least 10 fold |
| O=C(NCCCN1CCC(c2ccc(F)cc2)CC1)N1C(=O)NC[C@@H](C2CC2)[C@@H]1c1ccc(F)c(F)c1 (relative stereo) [Example 21 (Isomer A), (4R,5S)-, (4S,5S)-, (4R,5R)-, and (4S,5R)-5-Cyclopropyl-4-(3,4-difluorophenyl)-3-[(4'-(4-fluorophenyl)piperidin-1'-yl)propyl]aminocarbonyltetrahydropyrimidin-2-one Hydrochlorides] | at least 10 fold |
| O=C(NCCCN1CCC(c2ccc(F)cc2)CC1)N1C(=O)NC[C@@H](C2CC2)[C@@H]1c1ccc(F)c(F)c1 (relative stereo) [Example 21 (Isomer C), (4R,5S)-, (4S,5S)-, (4R,5R)-, and (4S,5R)-5-Cyclopropyl-4-(3,4-difluorophenyl)-3-[(4'-(4-fluorophenyl)piperidin-1'-yl)propyl]aminocarbonyltetrahydropyrimidin-2-one Hydrochlorides] | at least 10 fold |
| O=C(NCCCN1CCC(c2ccc(F)cc2)CC1)N1C(=O)NC[C@H](C2CC2)[C@@H]1c1ccc(F)c(F)c1 (relative stereo) [Example 21 (Isomer D), (4R,5S)-, (4S,5S)-, (4R,5R)-, and (4S,5R)-5-Cyclopropyl-4-(3,4-difluorophenyl)-3-[(4'-(4-fluorophenyl)piperidin-1'-yl)propyl]aminocarbonyltetrahydropyrimidin-2-one Hydrochlorides] | at least 10 fold |
| CC1(C)CCC(c2ccc(F)c(F)c2)N(C(=O)NCCCN2CCC(c3ccc(F)cc3)CC2)C1=O.Cl (single isomer, unassigned) [Example 1] | at least 10 fold |
| CC1(C)CC(=O)N(C(=O)NCCCN2CCC(c3ccc(F)cc3)CC2)C(c2ccc(F)c(F)c2)C1.Cl (single isomer, unassigned) [Example 2 (Enantiomer A)] | at least 10 fold |
| CC1CC(=O)N(C(=O)NCCCN2CCC(c3ccc(F)cc3)CC2)C(c2ccc(F)c(F)c2)C1 (single isomer, unassigned) [Example 3 (Isomer A), Hydrochloride] | at least 10 fold |
| CC1CC(=O)N(C(=O)NCCCN2CCC(c3ccc(F)cc3)CC2)C(c2ccc(F)c(F)c2)C1 (single isomer, unassigned) [Example 3 (Isomer C), Hydrochloride] | at least 10 fold |
| N#CC1(c2ccc(F)cc2)CCN(CCCNC(=O)N2C(=O)CCCC2c2ccc(F)c(F)c2)CC1 (single isomer, unassigned) [Example 6 (Enantiomer A), Hydrochloride] | at least 10 fold |
| O=C1CCCC(c2ccc(F)c(F)c2)N1C(=O)NCCCN1CCC2(CCc3ccccc32)CC1 (single isomer, unassigned) [Example 7 (Enantiomer A), Hydrochloride] | at least 10 fold |
